The source made the active and inactive calls. The rule behind the calls is not given here.
Key:
Mus musculus [1] = assay: Anticonvulsant activity in Carworth farms No.1 albino mouse assessed as protection against 6 Hz electric current-induced seizure at 100 mg/kg, ip measured after 1 hrs; format: functional, organism-based; design: dose 100 mg/kg
Mus musculus [2] = assay: Neurotoxicity in Carworth farms No.1 albino mouse assessed as neurological impairment at 100 mg/kg, ip measured after 1 hr; format: toxicity, organism-based; design: dose 100 mg/kg, route intraperitoneal; details: in vivo
Rattus norvegicus [3] = assay: Toxicity in Sprague-Dawley rat assessed as body weight change in unprotected animals at 900 mg/kg, ip measured after 0.5 hrs; format: organism-based; design: dose 900 mg/kg, route intraperitoneal; details: in vivo
Mus musculus [4] = assay: Neurotoxicity in Carworth farms No.1 albino mouse assessed as neurological impairment at 30 mg/kg, ip measured after 4 hrs; format: toxicity, organism-based; design: dose 30 mg/kg, route intraperitoneal; details: in vivo
Mus musculus [5] = assay: Neurotoxicity in Carworth farms No.1 albino mouse assessed as neurological impairment at 300 mg/kg, ip measured after 4 hrs; format: toxicity, organism-based; design: dose 300 mg/kg, route intraperitoneal; details: in vivo
Mus musculus [6] = assay: Neurotoxicity in Carworth farms No.1 albino mouse assessed as neurological impairment at 100 mg/kg, ip measured after 4 hrs; format: toxicity, organism-based; design: dose 100 mg/kg, route intraperitoneal; details: in vivo
Rattus norvegicus [7] = assay: Toxicity in Sprague-Dawley rat assessed as mortality at 900 mg/kg, ip measured after 0.5 hrs; format: organism-based; design: dose 900 mg/kg, route intraperitoneal; details: in vivo
Rattus norvegicus [8] = assay: Neurotoxicity in Sprague-Dawley rat assessed as sedation at 900 mg/kg, ip measured after 0.5 hrs; format: toxicity, organism-based; design: dose 900 mg/kg, route intraperitoneal; details: in vivo
Mus musculus [9] = assay: Anticonvulsant activity in Carworth farms No.1 albino mouse assessed as protection against maximum electroshock at 100 mg/kg, ip measured after 0.5 hrs; format: functional, organism-based; design: dose 100 mg/kg
Rattus norvegicus [10] = assay: Toxicity in Sprague-Dawley rat assessed as body weight change in protected animals at 900 mg/kg, ip measured after 0.5 hrs; format: organism-based; design: dose 900 mg/kg, route intraperitoneal; details: in vivo
Mus musculus [11] = assay: Neurotoxicity in Carworth farms No.1 albino mouse assessed as neurological impairment at 100 mg/kg, ip measured after 0.5 hrs; format: toxicity, organism-based; design: dose 100 mg/kg, route intraperitoneal; details: in vivo
Rattus norvegicus [12] = assay: Anticonvulsant activity in Sprague-Dawley rat assessed as protection against maximum electroshock at 30 mg/kg, po measured after 4 hrs; format: functional, organism-based; design: dose 30 mg/kg
Mus musculus [13] = species: Mus musculus; assay: Anticonvulsant activity in electric shock-induced Carworth farms No.1 albino mouse assessed as time of peak effect; format: functional
Mus musculus [14] = assay: Anticonvulsant activity in Carworth farms No.1 albino mouse assessed as protection against 6 Hz electric current-induced seizure at 100 mg/kg, ip measured after 4 hrs; format: functional, organism-based; design: dose 100 mg/kg
Rattus norvegicus [15] = assay: Anticonvulsant activity in Sprague-Dawley rat assessed as protection against maximum electroshock at 30 mg/kg, po measured after 2 hrs; format: functional, organism-based; design: dose 30 mg/kg
Rattus norvegicus [16] = assay: Neurotoxicity in Sprague-Dawley rat assessed as neurological impairment at 30 mg/kg, po measured after 2 hrs; format: toxicity, organism-based; design: dose 30 mg/kg, route oral; details: in vivo
Mus musculus [17] = assay: Anticonvulsant activity in Carworth farms No.1 albino mouse assessed as protection against 6 Hz electric current-induced seizure at 100 mg/kg, ip measured after 0.25 hrs; format: functional, organism-based; design: dose 100 mg/kg
Mus musculus [18] = assay: Anticonvulsant activity in Carworth farms No.1 albino mouse assessed as protection against subcutaneous metrazole-induced seizures at 100 mg/kg, ip measured after 4 hrs; format: functional, organism-based; design: dose 100 mg/kg
Mus musculus [19] = assay: Anticonvulsant activity in Carworth farms No.1 albino mouse assessed as protection against subcutaneous metrazole-induced seizures at 300 mg/kg, ip measured after 0.5 hrs; format: functional, organism-based; design: dose 300 mg/kg
Rattus norvegicus [20] = assay: Anticonvulsant activity in Sprague-Dawley rat assessed as protection against maximum electroshock at 30 mg/kg, po measured after 0.25 hrs; format: functional, organism-based; design: dose 30 mg/kg
Rattus norvegicus [21] = assay: Anticonvulsant activity in Sprague-Dawley rat assessed as protection against maximum electroshock at 30 mg/kg, po measured after 0.5 hrs; format: functional, organism-based; design: dose 30 mg/kg
Mus musculus [22] = assay: Anticonvulsant activity in ip dosed Carworth farms No.1 albino mouse assessed as protection against 6 Hz electric current-induced seizure measured after 0.25 hrs; format: functional
Mus musculus [23] = assay: Anticonvulsant activity in Carworth farms No.1 albino mouse assessed as protection against maximum electroshock at 100 mg/kg, ip measured after 4 hrs; format: functional, organism-based; design: dose 100 mg/kg
Rattus norvegicus [24] = assay: Neurotoxicity in Sprague-Dawley rat assessed as neurological impairment at 30 mg/kg, po measured after 0.5 hrs; format: toxicity, organism-based; design: dose 30 mg/kg, route oral; details: in vivo
Mus musculus [25] = assay: Anticonvulsant activity in Carworth farms No.1 albino mouse assessed as protection against subcutaneous metrazole-induced seizures at 300 mg/kg, ip measured after 4 hrs; format: functional, organism-based; design: dose 300 mg/kg
Mus musculus [26] = assay: Anticonvulsant activity in Carworth farms No.1 albino mouse assessed as protection against 6 Hz electric current-induced seizure at 100 mg/kg, ip measured after 0.5 hrs; format: functional, organism-based; design: dose 100 mg/kg
Rattus norvegicus [27] = assay: Neurotoxicity in Sprague-Dawley rat assessed as neurological impairment at 30 mg/kg, po measured after 0.25 hrs; format: toxicity, organism-based; design: dose 30 mg/kg, route oral; details: in vivo
Mus musculus [28] = assay: Anticonvulsant activity in Carworth farms No.1 albino mouse assessed as protection against 6 Hz electric current-induced seizure at 100 mg/kg, ip measured after 2 hrs; format: functional, organism-based; design: dose 100 mg/kg
Mus musculus [29] = assay: Anticonvulsant activity in Carworth farms No.1 albino mouse assessed as protection against maximum electroshock at 30 mg/kg, ip measured after 0.5 hrs; format: functional, organism-based; design: dose 30 mg/kg
Mus musculus [30] = assay: Anticonvulsant activity in Carworth farms No.1 albino mouse assessed as protection against maximum electroshock at 300 mg/kg, ip measured after 4 hrs; format: functional, organism-based; design: dose 300 mg/kg
Mus musculus [31] = assay: Anticonvulsant activity in Carworth farms No.1 albino mouse assessed as protection against maximum electroshock at 300 mg/kg, ip measured after 0.5 hrs; format: functional, organism-based; design: dose 300 mg/kg
Rattus norvegicus [32] = assay: Anticonvulsant activity in Sprague-Dawley rat assessed as protection against pilocarpine-induced status at 900 mg/kg, ip measured after 0.5 hrs; format: functional, organism-based; design: dose 900 mg/kg
Mus musculus [33] = assay: Anticonvulsant activity in Carworth farms No.1 albino mouse assessed as protection against subcutaneous metrazole-induced seizures at 100 mg/kg, ip measured after 0.5 hrs; format: functional, organism-based; design: dose 100 mg/kg
Mus musculus [34] = assay: Neurotoxicity in Carworth farms No.1 albino mouse assessed as neurological impairment at 100 mg/kg, ip measured after 2 hr; format: toxicity, organism-based; design: dose 100 mg/kg, route intraperitoneal; details: in vivo
Mus musculus [35] = assay: Neurotoxicity in Carworth farms No.1 albino mouse assessed as neurological impairment at 300 mg/kg, ip measured after 0.5 hrs; format: toxicity, organism-based; design: dose 300 mg/kg, route intraperitoneal; details: in vivo
Mus musculus [36] = assay: Neurotoxicity in Carworth farms No.1 albino mouse assessed as neurological impairment at 30 mg/kg, ip measured after 0.5 hrs; format: toxicity, organism-based; design: dose 30 mg/kg, route intraperitoneal; details: in vivo
Mus musculus [37] = assay: Neurotoxicity in Carworth farms No.1 albino mouse assessed as neurological impairment at 100 mg/kg, ip measured after 0.25 hrs; format: toxicity, organism-based; design: dose 100 mg/kg, route intraperitoneal; details: in vivo
Rattus norvegicus [38] = assay: Neurotoxicity in Sprague-Dawley rat assessed as neurological impairment at 30 mg/kg, po measured after 4 hrs; format: toxicity, organism-based; design: dose 30 mg/kg, route oral; details: in vivo
Mus musculus [39] = assay: Anticonvulsant activity in Carworth farms No.1 albino mouse assessed as protection against subcutaneous metrazole-induced seizures at 30 mg/kg, ip measured after 0.5 hrs; format: functional, organism-based; design: dose 30 mg/kg
Mus musculus [40] = assay: Anticonvulsant activity in Carworth farms No.1 albino mouse assessed as protection against subcutaneous metrazole-induced seizures at 30 mg/kg, ip measured after 4 hrs; format: functional, organism-based; design: dose 30 mg/kg
Rattus norvegicus [41] = assay: Anticonvulsant activity in Sprague-Dawley rat assessed as protection against maximum electroshock at 30 mg/kg, po measured after 1 hr; format: functional, organism-based; design: dose 30 mg/kg
Mus musculus [42] = assay: Anticonvulsant activity in Carworth farms No.1 albino mouse assessed as protection against maximum electroshock at 30 mg/kg, ip measured after 4 hrs; format: functional, organism-based; design: dose 30 mg/kg
Rattus norvegicus [43] = assay: Neurotoxicity in Sprague-Dawley rat assessed as neurological impairment at 30 mg/kg, po measured after 1 hr; format: toxicity, organism-based; design: dose 30 mg/kg, route oral; details: in vivo

O=C1NC(=O)[C@@H](c2ccccc2)N2CCCC[C@H]12 was tested. Which Activity (Mus musculus [1]) did it give?
Its Activity is “Active”.

And the Activity (Mus musculus [2])?
The Activity was “Non-toxic”.

And the Activity (Rattus norvegicus [3])?
The Activity was -20 g.

And the Activity (Mus musculus [4])?
The Activity was “Non-toxic”.

And the Activity (Mus musculus [5])?
The Activity was “Non-toxic”.

And the Activity (Mus musculus [6])?
Its Activity is “Non-toxic”.

And the Activity (Rattus norvegicus [7])?
The Activity was “Toxic”.

What about the Activity (Rattus norvegicus [8]) of the same compound?
Its Activity is “Toxic”.

What about the Activity (Mus musculus [9]) of the same compound?
The Activity was “inactive”.

What about the Activity (Rattus norvegicus [10]) of the same compound?
The Activity was -17.5 g.

What about the Activity (Mus musculus [11]) of the same compound?
Its Activity is “Non-toxic”.

What about the Activity (Rattus norvegicus [12]) of the same compound?
The Activity was “Active”.

What about the Time (Mus musculus [13]) of the same compound?
Its Time is 0.25 h.

What about the Activity (Mus musculus [14]) of the same compound?
Its Activity is “inactive”.

And the Activity (Rattus norvegicus [15])?
Its Activity is “inactive”.

What about the Activity (Rattus norvegicus [16]) of the same compound?
Its Activity is “Non-toxic”.

And the Activity (Mus musculus [17])?
Its Activity is “Active”.

What about the Activity (Mus musculus [18]) of the same compound?
The Activity was “inactive”.

What about the Activity (Mus musculus [19]) of the same compound?
The Activity was “inactive”.

What about the Activity (Rattus norvegicus [20]) of the same compound?
Its Activity is “inactive”.

And the Activity (Rattus norvegicus [21])?
Its Activity is “inactive”.

What about the ED50 (Mus musculus [22]) of the same compound?
The ED50 was 38.2 mg/kg.

And the Activity (Mus musculus [23])?
Its Activity is “inactive”.

What about the Activity (Rattus norvegicus [24]) of the same compound?
Its Activity is “Non-toxic”.

And the Activity (Mus musculus [25])?
Its Activity is “inactive”.

And the Activity (Mus musculus [26])?
The Activity was “Active”.

And the Activity (Rattus norvegicus [27])?
Its Activity is “Non-toxic”.

What about the Activity (Mus musculus [28]) of the same compound?
The Activity was “Active”.

What about the Activity (Mus musculus [29]) of the same compound?
The Activity was “inactive”.

And the Activity (Mus musculus [30])?
The Activity was “inactive”.

What about the Activity (Mus musculus [31]) of the same compound?
The Activity was “inactive”.

What about the Activity (Rattus norvegicus [32]) of the same compound?
The Activity was “Active”.

What about the Activity (Mus musculus [33]) of the same compound?
Its Activity is “inactive”.

What about the Activity (Mus musculus [34]) of the same compound?
The Activity was “Non-toxic”.

And the Activity (Mus musculus [35])?
Its Activity is “Non-toxic”.

And the Activity (Mus musculus [36])?
Its Activity is “Non-toxic”.

What about the Activity (Mus musculus [37]) of the same compound?
Its Activity is “Non-toxic”.

And the Activity (Rattus norvegicus [38])?
The Activity was “Non-toxic”.

And the Activity (Mus musculus [39])?
The Activity was “inactive”.

What about the Activity (Mus musculus [40]) of the same compound?
Its Activity is “inactive”.

What about the Activity (Rattus norvegicus [41]) of the same compound?
The Activity was “inactive”.

And the Activity (Mus musculus [42])?
The Activity was “inactive”.

What about the Activity (Rattus norvegicus [43]) of the same compound?
Its Activity is “Non-toxic”.

— ChEMBL document CHEMBL1944578, “Synthesis and anticonvulsant activity of novel 2,6-diketopiperazine derivatives. Part 2: Perhydropyrido[1,2-a]pyrazines” (Eur J Med Chem, 2012)
